Read-outs that look alike come from different tables or passages of the source.
What was measured:
Format in all cases: biochemical
[1] = target: T1, NMDAR2B expressing HEK cell membranes (Homo sapiens, UniProt Q13224); assay: NMDAR agonist assay, [3H]MK-801 binding, NMDAR2B; conditions: 50 μM glutamate; for EC50: [3H]MK-801 binding, read-out: NMDAR2B log EC50 (converted)
T1 construct: expressed in transfected cells; host or cells: HEK cells (membrane extract)
Experimental: (§1) (nonequilibrium conditions).
(§2) The baseline value was determined from the best fit curve of the DPM values modeled using the GraphPad program and the log(agonist) vs. response(three parameters) algorithm was then subtracted from all points in the dataset.

[2] = target: T2, NMDAR2A expressing HEK cell membranes (Homo sapiens, UniProt Q12879); assay: NMDAR agonist assay, [3H]MK-801 binding, NMDAR2A; conditions: 50 μM glutamate; for EC50: [3H]MK-801 binding, read-out: NMDAR2A: log EC50 (converted)
T2 construct: expressed in transfected cells; host or cells: HEK cells (membrane extract)
Experimental: as §1, §2

[3] = target: T3, NMDAR2B expressing HEK cell membranes (Homo sapiens, UniProt Q05586+Q13224); assay: NMDAR agonist assay, [3H]MK-801 binding, NMDAR2B; conditions: for EC50: [3H]MK-801 binding; for Emax: relative to 1 mM glycine, read-out: NMDAR2B: % maximal [3H]MK-801 binding relative to 1 mM glycine
T3 construct: expressed in transfected cells; host or cells: HEK cells (membrane extract)
Experimental: as §1, §2

[4] = target: T4, NMDAR2A expressing HEK cell membranes (Homo sapiens, UniProt Q05586+Q12879); assay: NMDAR agonist assay, [3H]MK-801 binding, NMDAR2A; conditions: [3H]MK-801 binding
T4 construct: expressed in transfected cells; host or cells: HEK cells (membrane extract)
Experimental: as §1, §2

[5] = NMDAR2B: log EC50, 50 μM glutamate
[6] = NMDAR2A: log EC50, 50 μM glutamate
[7] = 50 μM glutamate, read-out: NMDAR2B log EC50 (converted)
[8] = 50 μM glutamate, read-out: NMDAR2A: log EC50 (converted)

T4 sequence (Q12879 23-1464, other chains not shown): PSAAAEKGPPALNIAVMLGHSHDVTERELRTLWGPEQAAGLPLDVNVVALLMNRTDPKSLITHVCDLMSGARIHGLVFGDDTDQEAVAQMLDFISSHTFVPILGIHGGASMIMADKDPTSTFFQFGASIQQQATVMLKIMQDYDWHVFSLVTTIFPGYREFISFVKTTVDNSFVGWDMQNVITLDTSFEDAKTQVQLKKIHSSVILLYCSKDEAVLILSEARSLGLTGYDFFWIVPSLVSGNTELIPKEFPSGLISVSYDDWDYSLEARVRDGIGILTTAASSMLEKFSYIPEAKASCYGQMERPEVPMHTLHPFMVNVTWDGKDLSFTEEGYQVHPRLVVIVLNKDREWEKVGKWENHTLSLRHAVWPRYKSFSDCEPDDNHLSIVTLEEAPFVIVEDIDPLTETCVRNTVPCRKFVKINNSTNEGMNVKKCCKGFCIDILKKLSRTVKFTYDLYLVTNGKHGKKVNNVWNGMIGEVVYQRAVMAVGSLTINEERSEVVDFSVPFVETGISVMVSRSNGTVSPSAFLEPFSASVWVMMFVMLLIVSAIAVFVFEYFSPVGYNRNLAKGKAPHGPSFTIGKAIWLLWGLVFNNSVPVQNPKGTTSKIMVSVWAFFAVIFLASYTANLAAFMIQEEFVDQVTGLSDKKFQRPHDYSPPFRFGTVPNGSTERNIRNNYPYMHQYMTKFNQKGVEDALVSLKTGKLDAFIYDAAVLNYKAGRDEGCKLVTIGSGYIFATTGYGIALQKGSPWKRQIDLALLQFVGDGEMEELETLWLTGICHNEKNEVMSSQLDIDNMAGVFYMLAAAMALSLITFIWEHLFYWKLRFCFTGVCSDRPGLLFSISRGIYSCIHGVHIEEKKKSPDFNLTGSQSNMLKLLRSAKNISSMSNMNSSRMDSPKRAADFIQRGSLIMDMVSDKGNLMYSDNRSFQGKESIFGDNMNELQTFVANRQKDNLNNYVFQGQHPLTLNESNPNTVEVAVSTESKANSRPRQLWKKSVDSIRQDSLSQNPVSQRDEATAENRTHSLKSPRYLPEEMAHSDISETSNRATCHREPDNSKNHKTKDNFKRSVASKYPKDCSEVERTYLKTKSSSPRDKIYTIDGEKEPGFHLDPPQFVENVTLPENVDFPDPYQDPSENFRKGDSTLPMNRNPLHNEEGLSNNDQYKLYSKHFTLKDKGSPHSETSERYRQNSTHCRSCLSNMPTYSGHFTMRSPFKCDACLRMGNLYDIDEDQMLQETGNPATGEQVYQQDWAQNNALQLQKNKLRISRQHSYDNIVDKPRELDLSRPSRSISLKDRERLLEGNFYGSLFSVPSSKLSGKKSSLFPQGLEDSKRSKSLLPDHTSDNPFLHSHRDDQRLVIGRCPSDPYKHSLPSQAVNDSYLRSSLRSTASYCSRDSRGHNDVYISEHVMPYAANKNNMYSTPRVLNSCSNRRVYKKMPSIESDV
T2 sequence (Q12879 23-1464, other chains not shown): as above
T3 sequence (Q13224 27-1484, other chains not shown): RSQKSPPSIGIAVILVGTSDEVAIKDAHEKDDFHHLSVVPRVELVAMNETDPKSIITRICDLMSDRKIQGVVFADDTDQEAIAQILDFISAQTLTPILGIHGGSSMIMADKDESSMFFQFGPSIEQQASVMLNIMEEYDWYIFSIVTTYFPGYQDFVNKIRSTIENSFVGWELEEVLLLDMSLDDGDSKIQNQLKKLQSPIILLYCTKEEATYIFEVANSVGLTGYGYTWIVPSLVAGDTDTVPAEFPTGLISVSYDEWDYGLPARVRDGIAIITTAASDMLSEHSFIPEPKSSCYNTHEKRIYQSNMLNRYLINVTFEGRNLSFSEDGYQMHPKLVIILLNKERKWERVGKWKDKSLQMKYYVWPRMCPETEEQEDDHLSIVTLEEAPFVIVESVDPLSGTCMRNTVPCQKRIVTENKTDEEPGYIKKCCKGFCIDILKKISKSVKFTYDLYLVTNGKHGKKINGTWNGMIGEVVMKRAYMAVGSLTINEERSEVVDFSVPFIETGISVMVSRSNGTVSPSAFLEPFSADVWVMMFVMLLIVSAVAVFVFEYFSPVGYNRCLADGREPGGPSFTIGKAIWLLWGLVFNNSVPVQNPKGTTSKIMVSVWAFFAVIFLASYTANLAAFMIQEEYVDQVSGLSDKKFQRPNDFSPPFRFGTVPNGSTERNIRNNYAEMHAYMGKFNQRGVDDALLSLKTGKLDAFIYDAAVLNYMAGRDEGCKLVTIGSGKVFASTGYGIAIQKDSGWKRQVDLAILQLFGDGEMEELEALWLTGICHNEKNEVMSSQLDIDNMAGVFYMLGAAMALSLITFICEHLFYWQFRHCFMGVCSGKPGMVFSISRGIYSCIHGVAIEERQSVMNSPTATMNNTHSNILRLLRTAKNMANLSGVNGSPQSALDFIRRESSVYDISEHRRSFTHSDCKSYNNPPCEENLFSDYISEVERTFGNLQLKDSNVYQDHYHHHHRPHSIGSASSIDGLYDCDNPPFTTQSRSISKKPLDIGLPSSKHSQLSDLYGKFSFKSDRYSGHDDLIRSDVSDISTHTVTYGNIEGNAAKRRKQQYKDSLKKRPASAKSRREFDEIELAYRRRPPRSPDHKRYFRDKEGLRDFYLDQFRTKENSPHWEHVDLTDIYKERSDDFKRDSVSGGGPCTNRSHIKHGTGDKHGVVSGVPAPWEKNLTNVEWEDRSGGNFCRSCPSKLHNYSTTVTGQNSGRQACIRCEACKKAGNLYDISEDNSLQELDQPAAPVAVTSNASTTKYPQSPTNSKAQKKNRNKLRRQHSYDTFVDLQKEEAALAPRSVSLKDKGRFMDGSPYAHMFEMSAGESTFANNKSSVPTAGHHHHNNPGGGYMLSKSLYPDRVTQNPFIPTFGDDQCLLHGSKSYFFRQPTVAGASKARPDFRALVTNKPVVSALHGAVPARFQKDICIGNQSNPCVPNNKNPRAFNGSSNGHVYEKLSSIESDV

Row | EC50 [1] | NMDAR2B: % maximal [3H]MK-801 binding relative to 1 mM glycine [1] | NMDAR2A: % maximal [3H]MK-801 binding relative to 1 mM glycine [2] | EC50 [2] | EC50 [3, 7] | EC50 [4, 8] | Emax ([3]; 50 μM glutamate) | Structure (SMILES) | EC50 [3, 5] | EC50 [4, 6]
1 | > 100 nM | − (−=0) | + (<100%=+) | – | – | – | – | CC(C)(C)OC(=O)N1C2(CCC13CNC3=O)CNC2=O (single isomer, unassigned) [AA-2, tert-butyl 1,7-dioxo-2,5,8-triazadispiro[3.1.36.24]undecane-5-carboxylate] | – | –
2 | > 100 nM | − (−=0) | − (−=0) | > 100 nM | – | – | – | CC(C)(C)OC(=O)N1C2(CCC13CNC3=O)CNC2=O (single isomer, unassigned) [AA-3, tert-butyl 1,7-dioxo-2,5,8-triazadispiro[3.1.36.24]undecane-5-carboxylate] | – | –
3 | – | − (−=0) | + (<100%=+) | < 1 nM | > 100 nM | – | – | CC(C)C(=O)N1C2(CCC13CNC3=O)CNC2=O (single isomer, unassigned) [AI, 5-isobutyryl-2,5,8-triazadispiro[3.1.36.24]undecane-1,7-dione] | – | –
4 | – | − (−=0) | + (<100%=+) | – | > 100 nM | – | – | C[C@@H](O)[C@H](NC(=O)C1CCC2(CNC2=O)N1Cc1ccccc1)C(N)=O (single isomer, unassigned) [AL-2] | – | –
5 | – | − (−=0) | − (−=0) | – | > 100 nM | > 100 nM | – | CC(C)C(=O)N1C(C(=O)N[C@H](C(N)=O)[C@@H](C)O)CCC12CNC2=O (single isomer, unassigned) [AR] | – | –
6 | – | + (<100%=+) | − (−=0) | – | < 1 nM | > 100 nM | – | CC(C)(C)OC(=O)N1CC2(CN(OCc3ccccc3)C2=O)CC12CN(OCc1ccccc1)C2=O (single isomer, unassigned) [AV, tert-butyl 2,8-bis(benzyloxy)-1,7-dioxo-2,8,10-triazadispiro[3.1.36.24]undecane-10-carboxylate] | – | –
7 | – | − (−=0) | + (<100%=+) | – | > 100 nM | < 1 nM | – | CC(C)(C)OC(=O)N1CC2(CN(OCc3ccccc3)C2=O)CC12CN(OCc1ccccc1)C2=O (single isomer, unassigned) [AX, tert-butyl 2,8-bis(benzyloxy)-1,7-dioxo-2,8,10-triazadispiro[3.1.36.24]undecane-10-carboxylate] | – | –
8 | – | + (<100%=+) | + (<100%=+) | – | < 1 nM | – | – | CC(C)CN1C(C(=O)N[C@H](C(N)=O)[C@@H](C)O)CCC12CNC2=O (single isomer, unassigned) [BB] | – | –
9 | < 1 nM | + (<100%=+) | + (<100%=+) | – | – | < 1 nM | – | C[C@@H](O)[C@H](NC(=O)C1CCC2(CNC2=O)N1C)C(N)=O (single isomer, unassigned) [BD] | – | –
10 | > 100 nM | – | – | > 100 nM | – | – | – | CNC(=O)[C@@H](NCC1CCC2(CN(OCc3ccccc3)C2=O)N1C(=O)OC(C)(C)C)[C@@H](C)O (single isomer, unassigned) [BN] | – | –
11 | – | ++ (>100%=++) | + (<100%=+) | – | – | < 1 nM | – | C[C@@H](O)[C@H](NCC1CCC2(CN(OCc3ccccc3)C2=O)N1C(=O)OC(C)(C)C)C(=O)N(C)C (single isomer, unassigned) [BR] | – | –
12 | > 100 nM | − (−=0) | − (−=0) | – | – | > 100 nM | – | C[C@@H](O)[C@H](NC1CN(C(=O)OC(C)(C)C)C2(CNC2=O)C1)C(N)=O (single isomer, unassigned) [CH] | – | –
13 | < 1 nM | + (<100%=+) | + (<100%=+) | – | – | < 1 nM | – | CC(O)C(NCC1CCC2(CN(OCc3ccccc3)C2=O)N1)C(N)=O (single isomer, unassigned) [CL] | – | –
14 | < 1 nM | + (<100%=+) | ++ (>100%=++) | < 1 nM | – | – | – | CC(O)C(NCC1CCC2(CNC2=O)N1)C(N)=O (single isomer, unassigned) [CN] | – | –
15 | < 1 nM | – | – | < 1 nM | – | – | – | CNC(=O)C(NCC1CCC2(CN(OCc3ccccc3)C2=O)N1)C(C)O (single isomer, unassigned) [CP] | – | –
16 | < 1 nM | ++ (>100%=++) | + (<100%=+) | – | – | < 1 nM | – | CNC(=O)C(NCC1CCC2(CNC2=O)N1)C(C)O (single isomer, unassigned) [CR] | – | –
17 | < 1 nM | + (<100%=+) | − (−=0) | – | – | > 100 nM | – | CC(O)C(C(N)=O)N(C)CC1CCC2(CN(OCc3ccccc3)C2=O)N1 (single isomer, unassigned) [CS] | – | –
18 | – | – | + (<100%=+) | – | < 1 nM | < 1 nM | < 100% | CC(O)C(C(N)=O)N(C)CC1CCC2(CN(OCc3ccccc3)C2=O)N1 (single isomer, unassigned) [CT] | – | –
19 | – | – | − (−=0) | – | – | > 100 nM | > 100% | CC(O)C(C(N)=O)N(C)CC1CCC2(CNC2=O)N1 (single isomer, unassigned) [CU] | – | –
20 | < 1 nM | ++ (>100%=++) | + (<100%=+) | < 1 nM | – | – | – | CNC(=O)C(C(C)O)N(C)CC1CCC2(CN(OCc3ccccc3)C2=O)N1 (single isomer, unassigned) [CX] | – | –
21 | < 1 nM | + (<100%=+) | + (<100%=+) | < 1 nM | – | – | – | CC(C)CN1C(C(N)=O)CCC12CNC2=O (single isomer, unassigned) [DD, 5-isobutyl-1-oxo-2,5-diazaspiro[3.4]octane-6-carboxamide] | – | –
22 | < 1 nM | – | – | < 1 nM | – | – | – | NC(=O)C1CCC2(CNC2=O)N1Cc1ccccc1 (single isomer, unassigned) [DF, 5-benzyl-1-oxo-2,5-diazaspiro[3.4]octane-6-carboxamide] | – | –
23 | – | ++ (>100%=++) | + (<100%=+) | < 1 nM | < 1 nM | – | – | NC(=O)C1CCC2(CNC2=O)N1Cc1ccc(F)cc1 (single isomer, unassigned) [DH, 5-(4-fluorobenzyl)-1-oxo-2,5-diazaspiro[3.4]octane-6-carboxamide] | – | –
24 | – | – | + (<100%=+) | – | < 1 nM | < 1 nM | < 100% | O=C1NCC12CN(Cc1ccc(F)cc1)C1(CNC1=O)C2 (single isomer, unassigned) [DK, 10-(4-fluorobenzyl)-2,8,10-triazadispiro[3.1.3^6.2^4]undecane-1,7-dione] | – | –
25 | < 1 nM | + (<100%=+) | − (−=0) | – | – | > 100 nM | – | O=C1NCC12CN(Cc1ccc(F)cc1)C1(CNC1=O)C2 (single isomer, unassigned) [DL, 10-(4-fluorobenzyl)-2,8,10-triazadispiro[3.1.3^6.2^4]undecane-1,7-dione] | – | –
26 | < 1 nM | + (<100%=+) | + (<100%=+) | – | – | < 1 nM | – | O=C1NCC12CN(Cc1ccc(F)cc1)C1(CNC1=O)C2 (single isomer, unassigned) [DM, 10-(4-fluorobenzyl)-2,8,10-triazadispiro[3.1.3^6.2^4]undecane-1,7-dione] | – | –
27 | < 1 nM | + (<100%=+) | + (<100%=+) | – | – | < 1 nM | – | O=C1NCC12CN(Cc1ccc(F)cc1)C1(CNC1=O)C2 (single isomer, unassigned) [DN, 10-(4-fluorobenzyl)-2,8,10-triazadispiro[3.1.3^6.2^4]undecane-1,7-dione] | – | –
28 | – | – | − (−=0) | – | > 100 nM | > 100 nM | 0% | CC(C)(C)OC(=O)N1C2(CCC13CNC3=O)CNC2=O (stereo not shown) [AA-1, tert-butyl 1,7-dioxo-2,5,8-triazadispiro[3.1.36.24]undecane-5-carboxylate] | – | –

Row | Structure (SMILES) | EC50 [1] | NMDAR2B: % maximal [3H]MK-801 binding relative to 1 mM glycine [1] | NMDAR2A: % maximal [3H]MK-801 binding relative to 1 mM glycine [2] | EC50 [2] | EC50 [3, 7] | EC50 [4, 8] | Emax ([3]; 50 μM glutamate) | EC50 [3, 5] | EC50 [4, 6]
29 | CN1C2(CCC13CNC3=O)CNC2=O (single isomer, unassigned) [AB-1, 5-methyl-2,5,8-triazadispiro[3.1.36.24]undecane-1,7-dione] | – | − (−=0) | + (<100%=+) | – | – | – | – | > 100 nM | < 1 nM
30 | O=C1NCC12CCC1(CNC1=O)N2 (single isomer, unassigned) [AK, 2,5,8-triazadispiro[3.1.36.24]undecane-1,7-dione] | – | − (−=0) | − (−=0) | – | – | – | – | > 100 nM | > 100 nM
